Data published in publication PMC11440035, “Interaction of myricetin, ampelopsin (dihydromyricetin), and their sulfate metabolites with serum albumin, cytochrome P450 (CYP2C9, 2C19, and 3A4) enzymes, and organic anion‐transporting polypeptides (OATP1B1 and OATP2B1)” (Pharmacology Research & Perspectives, 2024).
Where “and” joins values, the source holds several entries; their conditions need not be identical. Equal entries are not always repeated. Where two headings read alike, the source gives them in different places.

How the values were obtained:
[1] = target: T1, OATP2B1 (Homo sapiens, UniProt O94956); assay: Inhibition of OATP2B1-mediated pyranine uptake in A431 cells; format: cell-based; conditions: for inhibition at 15 min, 25 μM: human, A431 cells overexpressing OATP2B1, pH 5.5, probe pyranine, 20 μM, read-out: inhibition / reduction of OATP2B1 transport activity; for inhibition at 15 min, 25 μM / inhibition of OATP2B1 in words: 25 μM flavonoid; for IC50: 15 min, uptake buffer pH 5.5, A431-OATP2B1 cells; for inhibitory strength on OATP2B1 relative to A4′S: ratio of IC50 values
T1 construct: expressed in transfected cells; host or cells: A431
T1 sequence (O94956 1-709): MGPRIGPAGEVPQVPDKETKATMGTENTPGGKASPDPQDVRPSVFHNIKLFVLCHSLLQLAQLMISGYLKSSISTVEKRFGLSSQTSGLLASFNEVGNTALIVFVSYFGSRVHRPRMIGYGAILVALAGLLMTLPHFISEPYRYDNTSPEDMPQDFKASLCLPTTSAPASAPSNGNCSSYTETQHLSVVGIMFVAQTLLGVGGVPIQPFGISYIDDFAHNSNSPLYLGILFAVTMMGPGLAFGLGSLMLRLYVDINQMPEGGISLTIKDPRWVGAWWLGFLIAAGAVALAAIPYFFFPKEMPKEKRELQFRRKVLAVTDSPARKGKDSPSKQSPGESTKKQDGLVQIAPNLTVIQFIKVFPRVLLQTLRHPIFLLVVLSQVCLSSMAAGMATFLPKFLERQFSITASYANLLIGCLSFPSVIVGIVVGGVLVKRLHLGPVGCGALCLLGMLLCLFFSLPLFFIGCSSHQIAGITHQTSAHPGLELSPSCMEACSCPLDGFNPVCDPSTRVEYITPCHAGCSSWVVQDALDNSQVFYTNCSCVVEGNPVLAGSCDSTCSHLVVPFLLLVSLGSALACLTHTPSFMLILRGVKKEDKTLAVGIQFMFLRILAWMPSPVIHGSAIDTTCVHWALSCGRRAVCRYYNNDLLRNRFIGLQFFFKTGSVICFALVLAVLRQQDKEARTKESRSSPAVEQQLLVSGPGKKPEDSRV
Description: Human A431 cells overexpressing OATPs (OATP1B1 or OATP2B1) and their mock‐transfected controls were established earlier.[42], [43] The cells were maintained at 37°C with 5% CO2 in Dulbecco's Modified Eagle Medium (DMEM; Thermo Fischer Scientific, Waltham, MA, USA) supplemented with fetal bovine serum (10%), L‐glutamine (2 mM), penicillin (100 units/mL) and streptomycin (100 μg/mL).
The inhibitory impacts of MYR, AMP, and their sulfate metabolites on OATP1B1 and OATP2B1 were examined using the fluorescent dye substrates disulfopyrene (6,8‐dihydroxy‐1,3‐disulfopyrene) and pyranine, respectively.[42], [43] The day before the transport measurements, A431 cells overexpressing OATP1B1 or OATP2B1 (and their mock‐transfected controls) were seeded onto 96‐well plates at a density of 80 000 cells/well in DMEM (200 μL). Next day, the medium was removed, the cells were washed three times with PBS (pH 7.4, 200 μL) at room temperature, then the cells were pre‐incubated with 50 μL of Hank's Balanced Salt Solution (HBSS, pH 7.4; OATP1B1) or uptake buffer (pH 5.5; OATP2B1) for 5 min at 37°C with or without the flavonoids.[43] The transport reaction was started by adding 50 μL of disulfopyrene‐containing (final concentration: 10 μM) HBSS (OATP1B1 assay), or pyranine‐containing (final concentration: 20 μM) uptake buffer (OATP2B1 assay). After 10 min (OATP1B1) or 15 min (OATP2B1), the transport was stopped by removing the supernatant and washing the cells three times with ice‐cold PBS (200 μL). Then the fluorescence was measured in 200 μL of PBS using an Enspire plate reader (PerkinElmer, Waltham, MA, US) at excitation and emission wavelengths of 460/510 nm. OATP‐dependent transport was determined by subtracting the fluorescence detected in mock control cells from that of OATP‐expressing cells. Transport activity was measured based on the fluorescence signal in the absence of flavonoids (100%).

[2] = target: T1, OATP2B1; assay: Uptake of flavonoids by A431-OATP2B1 versus mock cells (APB fluorescence); format: cell-based; conditions: for cellular flavonoid level in OATP2B1‐overexpressing versus mock control cells: 10 μM flavonoid, 15 min, 37°C; for substrate of OATP2B1: conclusion from uptake studies
Description: Direct uptake of AMP, MYR, and their sulfate metabolites were examined in A431 cells overexpressing OATP1B1 or OATP2B1, and in their mock‐transfected controls using APB as a fluorescence enhancer. One day before the uptake measurements, the cells were seeded onto 96‐well plates at a density of 80 000 cells/well in DMEM (200 μL). The following day, the cell culture medium was removed, and the cells were rinsed thrice with PBS (200 μL). Thereafter, the cells were preincubated with HBSS (50 μL) for 5 min at 37°C. The uptake reaction was initiated by the addition of a further 50 μL of HBSS containing AMP, MYR, or their sulfate conjugates (10 μM). After incubating for 15 min at 37°C, the reaction was stopped by removing the supernatant and rinsing the cells three times with ice‐cold PBS. Then PBS buffer (200 μL) containing APB (250 μg/mL) and BSA (1 mg/mL) was added to each well.[35] The fluorescence was read using an Enspire plate reader using the wavelengths listed in Section 2.7.
The concentration‐dependent uptake of M3′S was also tested under the same conditions, except the cells were incubated with 0–10 μM M3′S for 2 min (OATP1B1) or 5 min (OATP2B1).
To test the effect of BSP (a known inhibitor of OATPs[44]) on the cellular uptake of M3′S, cells were preincubated with HBSS buffer (50 μL) with or without BSP (20 μM) for 5 min at 37°C. Thereafter, we added 50 μL of HBSS containing M3′S (final concentration: 2 μM), and cells were further incubated at 37°C for 2 min (OATP1B1) or 5 min (OATP2B1). The reaction was stopped by removing the supernatant. After washing the cells with ice‐cold PBS, a PBS buffer with APB/BSA was added. Fluorescence was determined by applying an Enspire plate reader at excitation/emission wavelengths of 480/540 nm.

[3] = pyranine 20 μM, read-out: IC50, OATP2B1

| inhibition at 15 min, 25 μM [1] | IC50 [1, 3] | substrate of OATP2B1 [2] | concentration‐dependent uptake in OATP2B1‐overexpressing cells ([2]; 0–10 μM, 5 min) | Compound | cellular flavonoid level in OATP2B1‐overexpressing versus mock control cells [2] | inhibition of OATP2B1 in words [1] | inhibitory strength on OATP2B1 relative to A4′S [1] | IC50 ([1]; IC50, OATP2B1, pyranine 20 μM) |
| --- | --- | --- | --- | --- | --- | --- | --- | --- |
| 90% | 2150 nM and 2200 nM | not substrates | – | O=C1c2c(O)cc(O)cc2OC(c2cc(O)c(OS(=O)(=O)O)c(O)c2)C1O (stereo not drawn) [A4′S, ampelopsin‐4′‐O‐sulfate] | did not show statistically significant differences | – | – | – |
| ~70% | – | not substrates | – | O=C1c2c(O)cc(O)cc2O[C@H](c2cc(O)c(O)c(O)c2)[C@H]1O [AMP, ampelopsin] | did not show statistically significant differences | – | – | – |
| – | 290 nM and 300 nM | substrate | saturable uptake | O=c1c(O)c(-c2cc(O)c(O)c(OS(=O)(=O)O)c2)oc2cc(O)cc(O)c12 [M3′S, myricetin‐3′‐O‐sulfate] | almost five‐fold | almost completely blocked | seven‐fold | – |

| Compound | inhibition at 15 min, 25 μM [1] | IC50 [1, 3] | substrate of OATP2B1 [2] | concentration‐dependent uptake in OATP2B1‐overexpressing cells ([2]; 0–10 μM, 5 min) | cellular flavonoid level in OATP2B1‐overexpressing versus mock control cells [2] | inhibition of OATP2B1 in words [1] | inhibitory strength on OATP2B1 relative to A4′S [1] | IC50 ([1]; IC50, OATP2B1, pyranine 20 μM) |
| --- | --- | --- | --- | --- | --- | --- | --- | --- |
| O=c1c(O)c(-c2cc(O)c(O)c(O)c2)oc2cc(O)cc(O)c12 [MYR, myricetin] | – | – | not substrates | – | did not show statistically significant differences | almost completely blocked | five‐fold | 430 nM and 400 nM |
